Experiment [1] can be described thus: Constant composition HAP crystal growth inhibition. The note with it: for Rate of HAP crystal growth: 37 °C, uninhibited rate 9.09; for Reduction of HAP crystal growth rate: concentration of 3.1×10^-5 M. How it is done: Hydroxyapatite seed crystals were prepared from calcium nitrate and potassium dihydrogen phosphate, as detailed elsewhere. The specific surface area, 34.9 m2 g-1, was determined by BET nitrogen adsorption using a 30/70 N2/He mixture (Monosorb, Quantachrome Corp). HAP crystals in the form of a suspension in water (41.8 g L-1) were used for the crystal growth experiments.
Solutions were prepared using triply distilled carbon dioxide-free water and filtered before use through washed 0.22 μm filters (Millipore, Bedford, Mass.). Calcium concentrations were determined either complexometrically by EDTA titration with Eriochrome Black-T as indicator, or by atomic absorption (Perkin-Elmer, model 3100, Norwich, Conn.). Carbon dioxide-free potassium hydroxide solutions were prepared from washed Reagent grade pellets in a nitrogen atmosphere.
Crystal growth experiments were made in magnetically-stirred water-jacketed Pyrex vessels at 37.0±0.05° C. with ionic strength, I=0.15 mol L^−1, adjusted by the addition of sodium chloride. Supersaturated solutions were prepared by introducing calcium chloride solution, followed by potassium dihydrogen phosphate solution. The pH was adjusted to the required value by the slow addition of potassium hydroxide solutions. During the reactions, carbon dioxide was excluded by bubbling with presaturated nitrogen gas. After equilibration, 0.5 mL of the HAP slurry was introduced to initiate the reaction. Since the nucleation and growth of crystals consume solution lattice ions, the lowering of pH was used to trigger the addition of two titrant solutions that served to maintain constant the pH, the concentrations of calcium and phosphate and the ionic strength of the solution. A glass electrode (Orion, model 9101), standardized using two NBS buffer solutions at pH=7.386 and 4.028 at 37° C., was used to control titrant addition through a potentiostat. The total calcium concentration in all experiments was 6.00×10^−4 mol L^−1 with a calcium/phosphate molar ratio of 1.67, so as to achieve a supersaturation with respect to HAP of σ=5.55 (as defined in Eq. (1)), as computed from mass balance, proton dissociation, electroneutrality, and equilibrium expressions involving calcium and phosphate species.
In Eq. (1), v is the number of ions per formula unit of precipitating phase and IP and KSO are, respectively, the ionic and solubility products of HAP.
During the reactions, samples were withdrawn periodically, filtered (0.22 μm Millipore filter) and analyzed for calciwn by atomic absorption and for phosphate spectrophotometrically (Varian, Cary 210) as the phosphovanadomolybdate complex in order to verify the constancy of the solution composition. Solid phases were examined by X-ray powder diffraction, XRD, (Siemens Nicolet/Nic spectrometer, CuK radiation with Ni filter=1.540; 2 from 3o to 45o), by scanning electron microscopy (SEM at 20 kV; JEOL JSM-5300, Noran Instrumental Inc. Middleton, Wis.) and by diffuse reflectance infared fourier transform spectroscopy (FTR, Perkin Elmer 1760×Fr-IR spectrometer). Plots of mineralization were calculated from plots of titrant volumes as a function of time as described previously.
It is quite well established that strong inhibitors of crystal growth, such as the phosphonates, act by blocking, through adsorption, active growth sites at the crystal surfaces. Commonly, inhibition kinetics data are interpreted in terms of a simple Langmuir adsorption model. Assuming that the adsorbed fullerene molecules occupy a fraction, θ, of the active growth sites, thereby preventing them from participating in the growth, the growth rate R can be written in terms of the uninhibited rate Ro (Eq. (2)): […]

The conditions of experiment [2]: cited from earlier work.
[3] abbreviates: Concentration 1.0 × 10^−6 mol/L.

Like-named read-outs stand apart in the source and are kept apart here.

For the compound “4,4-bisphosphono-2-(polyhdroxyl-1,2-dihdro-1,2-methanofullerene[60]-61-carboxamido)butyric Acid [C60(OH)16AMBP]”, the “Rate of HAP crystal growth” value in experiment [1] (C60(OH)16AMBP 0.39 × 10^−6 mol L^−1) is reported as 7.67 10^−8 mol min^−1 m^−2; in experiment [1] (C60(OH)16AMBP 0.77 × 10^−6 mol L^−1), 6.51 10^−8 mol min^−1 m^−2; in experiment [1] (C60(OH)16AMBP 1.16 × 10^−6 mol L^−1) it was 4.55 10^−8 mol min^−1 m^−2; in experiment [1] (C60(OH)16AMBP 1.54 × 10^−6 mol L^−1), 3.77 10^−8 mol min^−1 m^−2; in experiment [1] (C60(OH)16AMBP 1.93 × 10^−6 mol L^−1), 2.83 10^−8 mol min^−1 m^−2; in experiment [1] (C60(OH)16AMBP 2.32 × 10^−6 mol L^−1) it was 2.46 10^−8 mol min^−1 m^−2. Besides, the “Rate of HAP crystal growth” value was 1.92 10^−8 mol min^−1 m^−2 in experiment [1] (C60(OH)16AMBP 2.7 × 10^−6 mol L^−1), 1.57 10^−8 mol min^−1 m^−2 in experiment [1] (C60(OH)16AMBP 3.09 × 10^−6 mol L^−1) and 1.23 10^−8 mol min^−1 m^−2 in experiment [1] (C60(OH)16AMBP 3.47 × 10^−6 mol L^−1). For the same compound, the “Percent Reduction in Growth Rate” value in experiment [1] (setting [3]) was determined as 50%; in experiment [1] (Concentration 3.5 × 10^−6 mol/L), 87%. Also, the “Reduction of HAP crystal growth rate” value in experiment [1] amounted to 87%.

As to `CC(O)(P(=O)(O)O)P(=O)(O)O` [CH3C(OH)[P(O)(OH)2]2, 1-hydroxyethylidene-1,1-diphosphonic acid], the “Percent Reduction in Growth Rate” value in experiment [2] (setting [3]) is given as 69^ref 29%. For the same compound, in experiment [2], the “Affinity Constant” value is on record as 13.3 × 10^5 ref 29 L mol^−1.

Turning to Fullerenol[60] [C60(OH)30], the “Rate of HAP crystal growth” value in experiment [1] (C60(OH)30 0.41 × 10^−6 mol L^−1) is 8.31 10^−8 mol min^−1 m^−2; in experiment [1] (C60(OH)30 0.81 × 10^−6 mol L^−1), 7.8 10^−8 mol min^−1 m^−2; in experiment [1] (C60(OH)30 1.22 × 10^−6 mol L^−1), 6.55 10^−8 mol min^−1 m^−2; in experiment [1] (C60(OH)30 1.63 × 10^−6 mol L^−1) it was 5.94 10^−8 mol min^−1 m^−2; in experiment [1] (C60(OH)30 2.03 × 10^−6 mol L^−1), 5.7 10^−8 mol min^−1 m^−2; in experiment [1] (C60(OH)30 2.44 × 10^−6 mol L^−1), 4.65 10^−8 mol min^−1 m^−2. Besides, the “Rate of HAP crystal growth” value in experiment [1] (C60(OH)30 2.85 × 10^−6 mol L^−1) is given as 4.07 10^−8 mol min^−1 m^−2; in experiment [1] (C60(OH)30 3.25 × 10^−6 mol L^−1), 3.97 10^−8 mol min^−1 m^−2; in experiment [1] (C60(OH)30 3.66 × 10^−6 mol L^−1), 3.85 10^−8 mol min^−1 m^−2; in experiment [1] (C60(OH)30 4.07 × 10^−6 mol L^−1), 2.64 10^−8 mol min^−1 m^−2; in experiment [1] (C60(OH)30 4.47 × 10^−6 mol L^−1), 2.49 10^−8 mol min^−1 m^−2. Besides, the “Percent Reduction in Growth Rate” value in experiment [1] (setting [3]) turned out to be 28%. Moreover, the “Affinity Constant” value in experiment [1] (Langmuir adsorption model, slope of Ro/R versus concentration) was determined as 414000 L/mol. For the same compound, the “Reduction of HAP crystal growth rate” value in experiment [1] is reported as 58%.
